Literature values, collected in patent US20250288540A1, “METHODS AND COMPOSITIONS FOR PAIN MANAGEMENT” (SILO PHARMA, INC., priority 2024, published 2025).

Columns and labels:
[1] = test system: halothane requirements (MAC); details: rat
[2] = test system: N-methyl-D-aspartate (NMDA) receptor

SMILES	solubility in ethanol (ethanol) [mg/mL]	solubility in ether (ether)	solubility in methanol (methanol)	activity relative to ketamine in reducing halothane requirements (MAC) [1]	affinity at the NMDA receptor compared with ketamine [2]
CNC1(c2ccccc2Cl)CCCCC1=O.Cl (centres unmarked) [Ketamine hydrochloride, 2-(2-chlorophenyl)-2-(methylamino) cyclohexan-1-one hydrochloride]	~750	practically insoluble	freely soluble	–	–
NC1(c2ccccc2Cl)CCCCC1=O (centres unmarked) [Norketamine]	–	–	–	about ⅓	less affinity
